Data from patent US7772263B2, “Compounds for the treatment of inflammatory disorders” (Schering Corporation, priority 2006, dated 2010).

What follows are molecules tested against T1, purified catalytic domain of recombinant human TACE (rhTACEc) (Homo sapiens, UniProt P78536, N452Q/S266A) (assay: TACE kinetic assay, cleavage of internally quenched fluorescent peptide substrate SPDL-3). Conditions: Ki (nM), TACE inhibitory activity, rhTACEc 70 pM, 30 μM SPDL-3, 90 min pre-incubation at 25° C.
T1 construct: rhTACEc, Residue 215 to 477 with two mutation (S266A and N4520) and a 6×His tail; 6xHis (C); made in house; host or cells: baculovirus/Hi5 insect cells
T1 sequence (P78536 215-477 S266A/N452Q limits assumed): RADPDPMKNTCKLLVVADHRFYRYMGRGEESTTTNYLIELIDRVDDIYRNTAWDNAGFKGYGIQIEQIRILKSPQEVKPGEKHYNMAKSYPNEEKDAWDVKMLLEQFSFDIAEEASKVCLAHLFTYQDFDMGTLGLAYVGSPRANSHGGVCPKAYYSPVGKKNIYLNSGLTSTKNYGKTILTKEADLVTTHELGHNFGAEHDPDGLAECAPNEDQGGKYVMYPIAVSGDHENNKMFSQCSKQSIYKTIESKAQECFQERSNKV
Assay type: biochemical

| SMILES | Ki [nM] |
| --- | --- |
| COc1ccc2c(c1)C(=O)N(C[C@@]1(C#Cc3ccc4[nH]ccc4c3)NC(=O)NC1=O)C2 [Compound 1129] | 0.17 |

Same assay, conditions: TACE; class letters A-D; read-out: Ki Rating

| SMILES | Ki [nM] |
| --- | --- |
| COc1ccc2c(c1)C(=O)N(C[C@@]1(C#Cc3ccc(SC(F)(F)F)cc3)NC(=O)NC1=O)C2 [Compound 1038] | < 5 |
| COc1ccc2c(c1)C(=O)N(C[C@@]1(C#Cc3ccc(S(=O)(=O)C(F)(F)F)cc3)NC(=O)NC1=O)C2 [Compound 1039] | 5 to 25 |
| O=C1NC(=O)[C@@](C#Cc2ccc(F)cc2F)(CN2Cc3ccc(F)cc3C2=O)N1 [Compound 1042] | < 5 |
| COc1ccc2c(c1)C(=O)N(C[C@@]1(C#Cc3cccc(C)c3)NC(=O)NC1=O)C2 [Compound 1044] | < 5 |
| COc1ccc2c(c1)C(=O)N(C[C@@]1(C#Cc3ccc(C#N)cc3)NC(=O)NC1=O)C2 [Compound 1045] | < 5 |
| COc1ccc2c(c1)C(=O)N(C[C@@]1(C#Cc3cccc(CO)c3)NC(=O)NC1=O)C2 [Compound 1048] | < 5 |
| COc1ccc2c(c1)C(=O)N(C[C@@]1(C#Cc3cc(Cl)ccc3OC)NC(=O)NC1=O)C2 [Compound 1054] | < 5 |
| COc1ccc2c(c1)C(=O)N(C[C@@]1(C#Cc3c(OC)ccc4c(C#N)cccc34)NC(=O)NC1=O)C2 [Compound 1056] | < 5 |
| COc1ccc2c(c1)C(=O)N(C[C@@]1(C#Cc3ccc(OCC4CC4)cc3)NC(=O)NC1=O)C2 [Compound 1058] | < 5 |
| COc1ccc2c(c1)C(=O)N(C[C@@]1(C#Cc3cccc(COCC4CC4)c3)NC(=O)NC1=O)C2 [Compound 1059] | < 5 |
| COc1ccc2c(c1)C(=O)N(C[C@@]1(C#Cc3ccc(C(C)O)s3)NC(=O)NC1=O)C2 (stereo partly drawn) [Compound 1061] | < 5 |
| COc1ccc2c(c1)C(=O)N(C[C@@]1(C#Cc3ccc(C#N)s3)NC(=O)NC1=O)C2 [Compound 1064] | < 5 |
| COc1ccc2c(c1)C(=O)N(C[C@@]1(C#Cc3ccc(C(=O)NC4CC4)cc3)NC(=O)NC1=O)C2 [Compound 1065] | < 5 |
| COc1ccc2c(c1)C(=O)N(C[C@@]1(C#Cc3ccc4[nH]c(=O)[nH]c4c3)NC(=O)NC1=O)C2 [Compound 1069] | < 5 |
| COc1ccc2c(c1)C(=O)N(C[C@@]1(C#Cc3cc(Cl)c(Br)s3)NC(=O)NC1=O)C2 [Compound 1071] | < 5 |
| COc1ccc2c(c1)C(=O)N(C[C@]1(C#Cc3ccc(C(C)N)cc3)NC(=O)NC1=O)C2 (stereo partly drawn) [Compound 1073] | > 100 |
| CNCc1cc(C#C[C@@]2(CN3Cc4ccc(OC)cc4C3=O)NC(=O)NC2=O)cs1 [Compound 1074] | > 100 |
| COc1ccc2c(c1)C(=O)N(C[C@@]1(C#Cc3ccc([C@H](C)N)cc3)NC(=O)NC1=O)C2 [Compound 1076] | < 5 |
| CNCc1cc(C#C[C@@]2(CN3Cc4ccc(OC)cc4C3=O)NC(=O)NC2=O)cs1 [Compound 1077] | < 5 |
| CON=Cc1ccc(C#C[C@@]2(CN3Cc4ccc(OC)cc4C3=O)NC(=O)NC2=O)cc1 [Compound 1081] | > 100 |
| CO/N=C(/C)c1ccc(C#C[C@]2(CN3Cc4ccc(OC)cc4C3=O)NC(=O)NC2=O)s1 [Compound 1082] | < 5 |

| SMILES | Ki [nM] |
| --- | --- |
| CO/N=C(\C)c1ccc(C#C[C@]2(CN3Cc4ccc(OC)cc4C3=O)NC(=O)NC2=O)s1 [Compound 1083] | < 5 |
| CON=Cc1ccc(C#C[C@]2(CN3Cc4ccc(OC)cc4C3=O)NC(=O)NC2=O)s1 [Compound 1084] | < 5 |
| CO/N=C/c1cccc(C#C[C@]2(CN3Cc4ccc(OC)cc4C3=O)NC(=O)NC2=O)c1 [Compound 1085] | < 5 |
| COc1ccc2c(c1)CCN(CC1(C#Cc3cccnc3)NC(=O)NC1=O)C2=O (stereo not drawn) [Compound 1087] | < 5 |
| COc1ccc2c(c1)C(=O)N(C[C@@]1(C#Cc3cccc(C=NO)c3)NC(=O)NC1=O)C2 [Compound 1089] | < 5 |
| COc1ccc2c(c1)C(=O)N(C[C@@]1(C#Cc3ccc(C(C)=NO)s3)NC(=O)NC1=O)C2 [Compound 1090] | < 5 |
| COc1ccc2c(c1)C(=O)N(C[C@@]1(C#Cc3ccc(C=NO)cc3)NC(=O)NC1=O)C2 [Compound 1091] | < 5 |
| COc1ccc2c(c1)CCN(C[C@@]1(C#Cc3cccnc3)NC(=O)NC1=O)C2=O [Compound 1092] | < 5 |
| COc1ccc2c(c1)CCN(C[C@@]1(C#Cc3ccc(Cl)s3)NC(=O)NC1=O)C2=O [Compound 1093] | < 5 |
| COc1ccc2c(c1)C(=O)N(C[C@]1(C#Cc3cnc4[nH]c(C)nc4c3C)NC(=O)NC1=O)C2 [Compound 1094] | > 100 |
| COc1ccc2c(c1)C(=O)N(C[C@@]1(C#Cc3ccc4c(c3)n(C)c(=O)n4C)NC(=O)NC1=O)C2 [Compound 1095] | < 5 |
| COc1ccc2c(c1)CCN(C[C@]1(C#Cc3cccnc3)NC(=O)NC1=O)C2=O [Compound 1096] | > 100 |
| COc1ccc2c(c1)C(=O)N(C[C@@]1(C#Cc3cnc4[nH]c(C)nc4c3C)NC(=O)NC1=O)C2 [Compound 1098] | < 5 |
| COc1ccc2c(c1)C(=O)N(C[C@@]1(C#Cc3ccc4[nH]ccc4c3)NC(=O)NC1=O)C2 [Compound 1129] | < 5 |
| COc1ccc2c(c1)C(=O)N(C[C@]1(C#Cc3ccc4[nH]ccc4c3)NC(=O)NC1=O)C2 [Compound 1130] | 5 to 25 |
| COc1ccc2c(c1)C(=O)N(C[C@@]1(C#Cc3cccc4[nH]ccc34)NC(=O)NC1=O)C2 [Compound 1132] | < 5 |
| COc1ccc2c(c1)C(=O)N(C[C@@]1(C#Cc3cccc(C(N)=O)c3)NC(=O)NC1=O)C2 [Compound 1134] | < 5 |
| CCOC(=O)c1ccc(C#C[C@]2(CN3Cc4ccc(OC)cc4C3=O)NC(=O)NC2=O)cc1 [Compound 1135] | < 5 |
| COc1ccc2c(c1)C(=O)N(C[C@@]1(C#Cc3ccc(-c4ncc[nH]4)cc3)NC(=O)NC1=O)C2 [Compound 1136] | < 5 |
| COc1ccc2c(c1)C(=O)N(C[C@@]1(C#Cc3ccc(C(=O)O)cc3)NC(=O)NC1=O)C2 [Compound 1138] | < 5 |

Results, then the molecule that gave them:

| Ki [nM] | SMILES |
| --- | --- |
| < 5 | COc1ccc2c(c1)C(=O)N(C[C@@]1(C#Cc3cccc(O)c3)NC(=O)NC1=O)C2 [Compound 1040] |
| < 5 | O=C1NC(=O)[C@@](C#Cc2cccc(F)c2)(CN2Cc3ccc(F)cc3C2=O)N1 [Compound 1041] |
| < 5 | COc1ccc(C#C[C@]2(CN3Cc4ccc(OC)cc4C3=O)NC(=O)NC2=O)cc1 [Compound 1043] |
| < 5 | CCOc1cccc(C#C[C@]2(CN3Cc4ccc(OC)cc4C3=O)NC(=O)NC2=O)c1 [Compound 1046] |
| < 5 | COc1ccc2c(c1)C(=O)N(C[C@@]1(C#Cc3ccc4c(c3)CCO4)NC(=O)NC1=O)C2 [Compound 1047] |
| < 5 | COc1ccc2c(c1)C(=O)N(C[C@@]1(C#Cc3ccc(Cl)s3)NC(=O)NC1=O)C2 [Compound 1049] |
| < 5 | CCOc1ccc(C#C[C@]2(CN3Cc4ccc(OC)cc4C3=O)NC(=O)NC2=O)cc1 [Compound 1050] |
| 25 to 100 | O=C1NC(=O)[C@](C#Cc2cccc(F)c2)(CN2Cc3ccc(F)cc3C2=O)N1 [Compound 1051] |
| 25 to 100 | O=C1NC(=O)[C@](C#Cc2ccc(F)cc2F)(CN2Cc3ccc(F)cc3C2=O)N1 [Compound 1052] |
| < 5 | COc1ccc2c(c1)C(=O)N(C[C@@]1(C#Cc3ccc4oc(C)cc4c3)NC(=O)NC1=O)C2 [Compound 1053] |
| < 5 | COCc1cccc(C#C[C@]2(CN3Cc4ccc(OC)cc4C3=O)NC(=O)NC2=O)c1 [Compound 1055] |
| < 5 | COc1ccc2c(c1)C(=O)N(C[C@@]1(C#Cc3ccc(OC(C)C)cc3)NC(=O)NC1=O)C2 [Compound 1057] |
| < 5 | COc1ccc2c(c1)C(=O)N(C[C@@]1(C#Cc3ccc(C(C)=O)s3)NC(=O)NC1=O)C2 [Compound 1060] |
| < 5 | COc1ccc2c(c1)C(=O)N(C[C@@]1(C#Cc3ccccc3C)NC(=O)NC1=O)C2 [Compound 1062] |
| < 5 | COc1ccc2c(c1)C(=O)N(C[C@@]1(C#Cc3cncc(O)c3)NC(=O)NC1=O)C2 [Compound 1063] |
| > 100 | COc1ccc2c(c1)C(=O)N(C[C@]1(C#Cc3cncc(O)c3)NC(=O)NC1=O)C2 [Compound 1066] |
| > 100 | COc1ccc2c(c1)C(=O)N(C[C@]1(C#Cc3ccc(C(=O)NC4CC4)cc3)NC(=O)NC1=O)C2 [Compound 1067] |
| > 100 | COc1ccc2c(c1)C(=O)N(C[C@]1(C#Cc3ccc(C#N)s3)NC(=O)NC1=O)C2 [Compound 1068] |
| < 5 | COc1ccc2c(c1)C(=O)N(C[C@@]1(C#Cc3csc(CN)c3)NC(=O)NC1=O)C2 [Compound 1070] |
| < 5 | COc1ccc2c(c1)C(=O)N(C[C@@]1(C#Cc3ccc(CO)s3)NC(=O)NC1=O)C2 [Compound 1072] |
| > 100 | COc1ccc2c(c1)C(=O)N(C[C@]1(C#Cc3ccc(C(C)O)cc3)NC(=O)NC1=O)C2 (stereo partly drawn) [Compound 1075] |
| < 5 | COc1ccc2c(c1)C(=O)N(C[C@@]1(C#Cc3ccc(C(C)O)cc3)NC(=O)NC1=O)C2 (stereo partly drawn) [Compound 1078] |
| < 5 | COc1ccc2c(c1)C(=O)N(C[C@@]1(C#Cc3cnccc3CO)NC(=O)NC1=O)C2 [Compound 1079] |
| < 5 | COc1ccc2c(c1)C(=O)N(C[C@@]1(C#Cc3sccc3Cl)NC(=O)NC1=O)C2 [Compound 1080] |
| < 5 | CON=Cc1ccc(C#C[C@]2(CN3Cc4ccc(OC)cc4C3=O)NC(=O)NC2=O)cc1 [Compound 1086] |
| 5 to 25 | COc1ccc2c(c1)CCN(CC1(C#Cc3ccc(Cl)s3)NC(=O)NC1=O)C2=O (stereo not drawn) [Compound 1088] |
| > 100 | COc1ccc2c(c1)CCN(C[C@]1(C#Cc3ccc(Cl)s3)NC(=O)NC1=O)C2=O [Compound 1097] |
| < 5 | COc1ccc2c(c1)C(=O)N(C[C@@]1(C#Cc3ccc4cc[nH]c4c3)NC(=O)NC1=O)C2 [Compound 1131] |
| < 5 | COc1ccc2c(c1)C(=O)N(C[C@@]1(C#Cc3ccc(C(N)=O)cc3)NC(=O)NC1=O)C2 [Compound 1133] |
| < 5 | COc1ccc2c(c1)C(=O)N(C[C@@]1(C#Cc3ccccc3C(N)=O)NC(=O)NC1=O)C2 [Compound 1137] |

Same assay, conditions: rhTACEc 70 pM, 30 μM SPDL-3, 90 min pre-incubation at 25° C.; read-out: Ki (nM), TACE inhibitory activity

| Ki [nM] | SMILES |
| --- | --- |
| 0.3 | COc1ccc2c(c1)C(=O)N(C[C@@]1(C#Cc3ccc(C(C)=NO)s3)NC(=O)NC1=O)C2 [Compound 1090] |
| 0.37 | COc1ccc2c(c1)CCN(C[C@@]1(C#Cc3cccnc3)NC(=O)NC1=O)C2=O [Compound 1092] |
| 1.8 | COc1ccc2c(c1)C(=O)N(C[C@@]1(C#Cc3cccc4[nH]ccc34)NC(=O)NC1=O)C2 [Compound 1132] |
